As a reminder, the IC50 is the midpoint of a concentration-inhibition curve.

Experimental findings from US11028090B2 (Dong Wha Pharm. Co., Ltd., priority 2017, dated 2021) are described below.

Read-outs that look alike come from different tables or passages of the source.

The target of series [1] is BRD4 (BD1+BD2) bromodomain (Homo sapiens (Human), UniProt O60885). Description: BRD4 binding inhibition (AlphaScreen, GST-BRD4 vs tetraacetylated histone H4 peptide). The gist of the method: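 GST-BRD4 (BD1+BD2) and biotinylated tetraacetyl-histone H4 peptide, each at 100 nM in HEPES pH 7.4 buffer with BSA and DTT, were combined with compound. Glutathione acceptor and streptavidin donor beads were added, then incubated 30 min at room temperature in the dark. Read-out was AlphaScreen signal.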
On the technique in general: In Alpha technology, singlet oxygen from a donor bead excites a nearby acceptor bead.

In series [2] the test system is thymus cancer cells (Ty-82 cells). Put plainly: Cytotoxicity to thymus cancer cells (Ty-82 cells), WST-1. The conditions noted are these: Homo sapiens, TY82, 72 h. Background: Tetrazolium dyes change colour on reduction, which living cells bring about.
Description: The following experiment was performed to evaluate the cytotoxicity of [1,2,4]triazolo[4,3-a]quinoxaline derivative according to the present invention to thymus cancer cells (Ty-82 cells).
First, thymus cancer cells (Ty-82 cells) were distributed in a 96 well plate at the density of 2.5×10^4 cells/well. 24 hours later, the plated cells were treated with the compounds of the present invention dissolved in DMSO at the different concentrations ranging from 0.01 μM to 10 μM. 72 hours later, the activities of the compounds were determined using WST-1 reagent.
Series [3] concerns acute myelogenous leukemia cells (MV-4-11 cells). Put plainly: Cytotoxicity to acute myelogenous leukemia cells (MV-4-11 cells), CCK-8.
The mark [4] stands for this setting: GST-BRD4 (BD1+BD2) / biotinylated acetyl-histone H4 (Lys5,8,12,16) peptide, read-out: IC50, BRD4 binding inhibition.
Where [5] appears, read: GST-BRD4 (BD1+BD2) vs biotinylated acetyl-histone H4 peptide, AlphaScreen, read-out: BRD4 IC50.
Setting [6] is: read-out: Ty-82 Cytotoxicity IC50.
Where [7] appears, read: Homo sapiens, MV4-11, 72 h, read-out: MV-4-11 Cytotoxicity IC50.
Setting [8] is: Homo sapiens, MV4-11, 72 h, read-out: IC50, cytotoxicity against acute myelogenous leukemia cells.

For `Cc1nnc2c(NCCCCNC(=O)C(C)(C)C)nc3ccccc3n12` [Example 3, 2,2-dimethyl-N-[4-(1-methyl-[1,2,4]triazolo[4,3-a]quinoxaline-4-ylamino)-butyl]-propionamide], the IC50 is at most 50 nM in series [1] (setting [4]), 28 nM in series [1] (setting [5]) and 920 nM in series [2] (setting [6]).

Turning to `Cc1nnc2c(NCCCCNC(=O)OC(C)C)nc3ccccc3n12` [Example 4, [4-(1-methyl-[1,2,4]triazolo[4,3-a]quinoxaline-4-ylamino)-butyl]-carbamic acid isopropylester], the values for the IC50 in series [1] (setting [4]) and in series [2] (setting [6]) were at most 50 nM and 650 nM, respectively.

On to `Cc1nnc2c(NCCCCNC(=O)CC(C)C)nc3ccccc3n12` [Example 7, 3-methyl-N-[4-(1-methyl-[1,2,4]triazolo[4,3-a]quinoxaline-4-ylamino)-butyl]-butyramide], for which the IC50 in series [1] (setting [4]) was at most 50 nM; in series [1] (setting [5]), 20 nM; in series [2] (read-out: IC50, cytotoxicity against thymus cancer cells), at most 500 nM; in series [2] (setting [6]), 260 nM.

Turning to `Cc1nnc2c(NCCCCNC(=O)CC(C)(C)C)nc3ccccc3n12` [Example 8, 3,3-dimethyl-N-[4-(1-methyl-[1,2,4]triazolo[4,3-a]quinoxaline-4-ylamino)-butyl]-butyramide], the IC50 in series [1] (setting [4]) is at most 50 nM; in series [1] (setting [5]), 24 nM; in series [2] (setting [6]), 860 nM.

As for `Cc1nnc2c(NCCCCNC(=O)c3ccccc3Cl)nc3ccccc3n12` [Example 12], the IC50 in series [1] (setting [5]) worked out at 58 nM; in series [2] (setting [6]), 850 nM.

On to `COc1cc2nc(NCCCCNC(=O)c3ccc([N+](=O)[O-])cc3)c3nnc(C)n3c2cc1OC` [Example 101, N-[4-(7,8-dimethoxy-1-methyl-[1,2,4]triazolo[4,3-a]quinoxaline-4-ylamino)-butyl]-4-nitro-benzamide], for which the IC50 in series [1] (setting [5]) was determined as 51 nM; in series [2] (setting [6]), 880 nM.

Regarding `CCC(C)CC(=O)NCCCCNc1nc2cc(OC)ccc2n2c(C(F)(F)F)nnc12` (stereo not drawn) [Example 591, 3-methyl-pentanoic acid-[4-(7-methoxy-1-trifluoromethyl-[1,2,4]triazolo[4,3-a]quinoxaline-4-ylamino)-butyl]-amide], the IC50 in series [1] (setting [4]) is at most 50 nM; in series [1] (setting [5]), 28 nM; in series [3] (setting [7]), 880 nM.

As for `CCc1nnc2c(NCCCCNC(=O)OC(C)(C)C)nc3cc(OC)c(OC)cc3n12` [Example 594, [4-(1-ethyl-7,8-dimethoxy-[1,2,4]triazolo[4,3-a]quinoxaline-4-ylamino)-butyl]-carbamic acid-tert-butylester], the IC50 in series [1] (setting [5]) amounted to 76 nM; in series [3] (setting [7]), 880 nM.

As to `CCc1nnc2c(NCCCCNC(=O)OC(C)C)nc3cc(OC)c(OC)cc3n12` [Example 596, [4-(1-ethyl-7,8-dimethoxy-[1,2,4]triazolo[4,3-a]quinoxaline-4-ylamino)-butyl]-carbamic acid isopropylester], the IC50 is at most 50 nM in series [1] (setting [4]), 19 nM in series [1] (setting [5]) and 510 nM in series [3] (setting [7]).

`CCc1nnc2c(NCCCCNC(=O)CC(C)C)nc3cc(OC)c(OC)cc3n12` [Example 597, N-[4-(1-ethyl-7,8-dimethoxy-[1,2,4]triazolo[4,3-a]quinoxaline-4-ylamino)-butyl]-3-methyl-butyramide]: the figures for the IC50 in series [1] (setting [4]), in series [1] (setting [5]) and in series [3] (setting [7]) were at most 50 nM, 18 nM and 230 nM, respectively.

As to `CCc1nnc2c(NCCCCNC(=O)OCC(C)C)nc3cc(OC)c(OC)cc3n12` [Example 598, [4-(1-ethyl-7,8-dimethoxy-[1,2,4]triazolo[4,3-a]quinoxaline-4-ylamino)-butyl]-carbamic acid isobutylester], the results for the IC50 in series [1] (setting [4]), in series [1] (setting [5]) and in series [3] (setting [7]) were at most 50 nM, 18 nM and 290 nM, respectively.

For `COc1cc2nc(NCCCCNC(=O)OC(C)C)c3nnc(C(C)C)n3c2cc1OC` [Example 601, [4-(1-isopropyl-7,8-dimethoxy-[1,2,4]triazolo[4,3-a]quinoxaline-4-ylamino)-butyl]-carbamic acid isopropylester], the values for the IC50 in series [1] (setting [5]) and in series [3] (setting [7]) were 56 nM and 230 nM, respectively.

Take `COc1cc2nc(NCCCCNC(=O)OCC(C)C)c3nnc(C(C)C)n3c2cc1OC` [Example 602, [4-(1-isopropyl-7,8-dimethoxy-[1,2,4]triazolo[4,3-a]quinoxaline-4-ylamino)-butyl]-carbamic acid isobutylester]: the IC50 in series [1] (setting [5]) is 58 nM; in series [3] (setting [7]), 290 nM.

`CCc1nnc2c(NCCCCNC(=O)OC(C)(C)C)nc3cc(OC)ccc3n12` [Example 620, [4-(7-methoxy-1-ethyl-[1,2,4]triazolo[4,3-a]quinoxaline-4-ylamino)-butyl]-carbamic acid-tert-butylester]: the figures for the IC50 in series [1] (setting [4]), in series [1] (setting [5]) and in series [3] (setting [7]) were at most 50 nM, 16 nM and 700 nM, respectively.

In the case of `CCc1nnc2c(NCCCCNC(=O)OC(C)C)nc3cc(OC)ccc3n12` [Example 623, [4-(7-methoxy-1-ethyl-[1,2,4]triazolo[4,3-a]quinoxaline-4-ylamino)-butyl]-carbamic acid isopropylester], the IC50 in series [1] (setting [4]) was at most 50 nM; in series [1] (setting [5]), 5 nM; in series [3] (setting [7]), 400 nM.

As to `CCc1nnc2c(NCCCCNC(=O)OCC(C)C)nc3cc(OC)ccc3n12` [Example 624, [4-(7-methoxy-1-ethyl-[l,2,4]triazolo[4,3-a]quinoxaline-4-ylamino)-butyl]-carbamic acid isobutylester], the IC50 in series [1] (setting [4]) is at most 50 nM; in series [1] (setting [5]), 16 nM; in series [3] (setting [7]), 410 nM.

Regarding `COc1cc2nc(NCCCCC(=O)NCC(C)C)c3nnc(C)n3c2cc1OC` [Example 648, 5-(7,8-dimethoxy-1-methyl-[1,2,4]triazolo[4,3-a]quinoxaline-4-ylamino)-pentanoic acid-isobutylamide], the IC50 was at most 50 nM in series [1] (setting [4]), 27 nM in series [1] (setting [5]), at most 200 nM in series [3] (setting [8]) and 130 nM in series [3] (setting [7]).

As for `CCC(C)CNC(=O)CCCCNc1nc2cc(OC)c(OC)cc2n2c(C)nnc12` (stereo not drawn) [Example 649, 5-(7,8-dimethoxy-1-methyl-[1,2,4]triazolo[4,3-a]quinoxaline-4-ylamino)-pentanoic acid-(2-methyl-butyl)-amide], the IC50 is at most 50 nM in series [1] (setting [4]), 23 nM in series [1] (setting [5]), at most 200 nM in series [3] (setting [8]) and 160 nM in series [3] (setting [7]).

Turning to `COc1cc2nc(NCCCCC(=O)NCc3ccco3)c3nnc(C)n3c2cc1OC` [Example 650, 5-(7,8-dimethoxy-1-methyl-[1,2,4]triazolo[4,3-a]quinoxaline-4-ylamino)-pentanoic acid-(furan-2-ylmethyl)-amide], the IC50 in series [1] (setting [4]) was at most 50 nM; in series [1] (setting [5]) it was 18 nM; in series [3] (setting [7]), 220 nM.

Take `COc1cc2nc(NCCCCC(=O)NCc3ccccc3)c3nnc(C)n3c2cc1OC` [Example 651, 5-(7,8-dimethoxy-1-methyl-[1,2,4]triazolo[4,3-a]quinoxaline-4-ylamino)-pentanoic acid-benzylamide]: the half-inhibitory concentration (IC50) is at most 50 nM in series [1] (setting [4]), 23 nM in series [1] (setting [5]), at most 200 nM in series [3] (setting [8]) and 120 nM in series [3] (setting [7]).

`COc1cc2nc(NCCCCC(=O)NCc3ccc[nH]3)c3nnc(C)n3c2cc1OC` [Example 652, 5-(7,8-dimethoxy-1-methyl-[1,2,4]triazolo[4,3-a]quinoxaline-4-ylamino)-pentanoic acid-(1H-pyrrole-2-ylmethyl)-amide]: the IC50 in series [1] (setting [4]) is at most 50 nM; in series [1] (setting [5]), 27 nM; in series [3] (setting [8]), at most 200 nM; in series [3] (setting [7]), 200 nM.

With `COc1ccc2c(c1)nc(NCCCCC(=O)NC(C)C)c1nnc(C)n12` [Example 654, 5-(7-methoxy-1-methyl-[1,2,4]triazolo[4,3-a]quinoxaline-4-ylamino)-pentanoic acid isopropylamide], the IC50 was at most 50 nM in series [1] (setting [4]), 11 nM in series [1] (setting [5]) and 270 nM in series [3] (setting [7]).

Turning to `COc1ccc2c(c1)nc(NCCCCC(=O)NCC(C)C)c1nnc(C)n12` [Example 655, 5-(7-methoxy-1-methyl-[1,2,4]triazolo[4,3-a]quinoxaline-4-ylamino)-pentanoic acid isobutylamide], the IC50 was at most 50 nM in series [1] (setting [4]), 11 nM in series [1] (setting [5]), at most 200 nM in series [3] (setting [8]) and 80 nM in series [3] (setting [7]).

As for `CCC(C)CNC(=O)CCCCNc1nc2cc(OC)ccc2n2c(C)nnc12` (stereo not drawn) [Example 656, 5-(7-methoxy-1-methyl-[1,2,4]triazolo[4,3-a]quinoxaline-4-ylamino)-pentanoic acid-(2-methyl-butyl)-amide], the IC50 is at most 50 nM in series [1] (setting [4]), 12 nM in series [1] (setting [5]), at most 200 nM in series [3] (setting [8]) and 150 nM in series [3] (setting [7]).

`COc1ccc2c(c1)nc(NCCCCC(=O)NCc1ccco1)c1nnc(C)n12` [Example 657]: the IC50 in series [1] (setting [4]) is at most 50 nM; in series [1] (setting [5]), 16 nM; in series [3] (setting [8]), at most 200 nM; in series [3] (setting [7]) it was 80 nM.

With “benzoic acid 1-methyl-4-[4-(3-methyl-butylamino)-butylamino]-[1,2,4]triazolo[4,3-a]quinoxaline-7-yl ester [Example 350]”, the IC50 in series [1] (setting [4]) was at most 50 nM; in series [1] (setting [5]) it was 33 nM; in series [3] (read-out: IC50, cytotoxicity against acute myelogenous leukemia cells, MV-4-11 cells, 72 hours, CCK-8) it was at most 200 nM; in series [3] (read-out: MV-4-11 Cytotoxicity IC50, MV-4-11 cells, 72 hours, CCK-8), 71 nM.
